Source: article PMC9628480, “Discovery and structural characterization of chicoric acid as a SARS-CoV-2 nucleocapsid protein ligand and RNA binding disruptor” (Scientific Reports, 2022)
Values joined by “and” are separate entries in the source; they are usually repeats but may differ in a detail not shown here. Identical values can stand only once. Like-named read-outs stand apart in the source and are kept apart here. Numbered stars: 1 amine (or outer) side, 2 acyl side, 3 side chain; on linkers, the order of the positions; unused ones are H or OH. Bridge positions count the residues as written; N and C are the ends. Square brackets hold non-standard residues; d marks the D form. Peptide text beside a SMILES is read from it. * marks the point of attachment. hTyr(3S-OH,4S-OH,3'-OSO3H) = N[C@H](C(=O)O)[C@H](O)[C@@H](O)c1ccc(O)c(OS(=O)(=O)O)c1; Orn(4R-OH,5R-OH) = O=C([C@H](C[C@@H](O)[C@@H](O)N[*:3])N[*:1])[*:2]; Pro(3S-OH,4S-Me) = C[C@H]1CN[C@H](C(=O)O)[C@H]1O; X1 = CCCCCOc1ccc(-c2cc(-c3ccc(C(=O)*)cc3)no2)cc1; Gln(3R-OH) = NC(=O)C[C@@H](O)[C@H](N)C(=O)O; X2 = CC(C)CCCCCCCCC[C@H](CC(=O)[*:1])O[*:2]; Hyp = O=C(O)[C@@H]1C[C@@H](O)CN1

Tests used:
[1] = target: T1, SARS-CoV-2 N protein-RNA1 interaction (Severe acute respiratory syndrome coronavirus 2, UniProt P0DTC9); test: biochemical; format: binding; settings: for loss in IC50 values in comparison to CA: single carboxylate at C1 versus CA
T1 construct: made in house; host or cells: Escherichia coli BL21 (DE3)

N protein-RNA1 complex = target: T2, N protein-RNA1 complex (Severe acute respiratory syndrome coronavirus 2, UniProt P0DTC9); format: binding, SARS-CoV-2; settings: protein:compound 1:2 ratio
T2 construct: made in house; host or cells: Escherichia coli BL21 (DE3)

[2] = target: T3, SARS-CoV-2 N protein (full-length) (Severe acute respiratory syndrome coronavirus 2, UniProt P0DTC9); test: DLS aggregation assay of N protein; settings: compound 20 µM, two-fold molar excess
T3 construct: made in house; host or cells: Escherichia coli BL21 (DE3)
Method: Aggregation assays were performed with the full-length N protein diluted to 10 µM in 50 mM sodium phosphate buffer, 100 mM NaCl (pH, 7.6), with subsequent addition of 20 µM of each test compounds or 1% DMSO used as diluent. […] Samples were evaluated by DLS in a ZetaSizer NanoS (Malvern) equipment, at 10 °C, using default parameters set by the equipment.

multiple human viruses = settings: cited from earlier work
SARS-CoV-2 [3] = settings: cited from earlier work
[4] = target: T1, SARS-CoV-2 N protein-RNA1 interaction; test: Primary FP HTS at 20 µM compound; format: binding; settings: compound 20 µM
SARS-CoV-2 [5] = test: SARS-CoV-2 replication assay in Vero CCL81 cells (plaque assay); format: cell-based
SARS-CoV-2 [6] = test: SARS-CoV-2 replication assay in Calu-3 cells (plaque assay); format: cell-based
SARS-CoV-2 particles = test: Virucidal assay in Vero CCL-81 cells; format: cell-based; settings: particles incubated with CA 25 or 100 µM for 1 h
[7] = IC50 for blocking the N protein-RNA1 interaction
[8] = read-out: IC50 for blocking the N protein-RNA1 interaction

Molecule	IC50 [1, 7]	other results
O=C1O[C@H]2[C@@H]3OC(=O)c4cc(O)c(O)c(O)c4-c4c(O)c(O)c5oc(=O)c6c(c(O)c(O)c7oc(=O)c4c5c76)-c4c(cc(O)c(O)c4O)C(=O)OC[C@H]3OC(O)[C@@H]2OC(=O)c2cc(O)c(O)c(O)c2-c2c1cc(O)c(O)c2O (mixture of isomers) [Punicalagin]	0.7 µM	binding affinity of the N protein to RNA1 in the presence of compound (N protein-RNA1 complex): significantly reduced; effect on hydrodynamic radius (Rh) / oligomeric state of the N protein (DLS) [2]: appears to cause N protein aggregation; in vitro antiviral potencies (multiple human viruses): low micromolar range
O=C1OC[C@H]2OC(O)[C@H](O)[C@@H](O)[C@@H]2OC(=O)c2cc(O)c(O)c(O)c2-c2c(O)c(O)c3oc(=O)c4c(c(O)c(O)c5oc(=O)c2c3c54)-c2c1cc(O)c(O)c2O (mixture of isomers) [Punicalin]	0.7 µM	in vitro antiviral potencies (multiple human viruses): low micromolar range
O=C(/C=C/c1ccc(O)c(O)c1)O[C@H]1[C@H](O)C[C@](O)(C(=O)O)C[C@H]1OC(=O)/C=C/c1ccc(O)c(O)c1 [4,5-Dicaffeoylquinic acid]		IC50 [1, 8]: 3 µM; loss in IC50 values in comparison to CA [1]: ~ 10 fold
Cc1cc2c(C(C)C)c(O)c(O)c(C=O)c2c(O)c1-c1c(C)cc2c(C(C)C)c(O)c(O)c(C=O)c2c1O [(R)-(-)-Gossypol acetic acid]		IC50 [1, 8]: 6.4 µM
CCCCCCCCCCCCCCCc1cccc(O)c1C(=O)O [Anacardic Acid]		IC50 [1, 8]: 7.7 µM
Oc1c(Cl)cc(Cl)cc1Sc1cc(Cl)cc(Cl)c1O [Bithionol]	23 µM	
CN(Cc1ccc(C(C)(C)C)cc1)Cc1cccc2ccccc12 [Butenafine]	15.7 µM	
O=C(O)C[C@@H]1C(=O)O[C@H]2[C@H](OC(=O)c3cc(O)c(O)c(O)c3)[C@@H](OC(=O)c3cc(O)c(O)c4c3[C@H]1[C@H](O)C(=O)O4)[C@H](OC(=O)c1cc(O)c(O)c(O)c1)O[C@@H]2COC(=O)c1cc(O)c(O)c(O)c1 [Chebulinic acid]		in vitro antiviral potencies (multiple human viruses): low micromolar range
O=C(O[C@@H]1O[C@@H]2COC(=O)c3cc(O)c(O)c(O)c3-c3c(cc(O)c(O)c3O)C(=O)O[C@H]([C@H]1O)[C@@H]2O)c1cc(O)c(O)c(O)c1 [Corilagin]	2.4 µM	
CC1=NN(c2ccc(C)c(C)c2)C(=O)/C1=N\Nc1cccc(-c2cccc(C(=O)O)c2)c1O [Eltrombopag]	7.1 µM and 8.1 µM	
CCCCCCCCCCCC1=C(O)C(=O)C=C(O)C1=O [Embelin]	5 µM	
C[C@@H](O)[C@H]1C(=O)N2C(C(=O)O)=C(S[C@@H]3CN[C@H](C(=O)Nc4cccc(C(=O)O)c4)C3)[C@H](C)[C@H]12 [Ertapenem sodium]		IC50 [1, 8]: 13.8 µM
O=C(O)c1cc(O)c(O)c(O)c1 [Gallic acid]	23.3 µM	
Cc1cc2c(C(C)C)c(O)c(O)c(C=O)c2c(O)c1-c1c(C)cc2c(C(C)C)c(O)c(O)c(C=O)c2c1O [Gossypol acetic acid]	7.1 µM	
Oc1c(Cl)cc(Cl)c(Cl)c1Cc1c(O)c(Cl)cc(Cl)c1Cl [Hexachlorophene]	13 µM	
O=C(NCc1ccc(Oc2ccccc2)cc1)c1nc(-c2cc(Br)c(O)c(Br)c2)no1 [IOWH-032]		IC50 [1, 8]: 7.7 µM
COc1cc(C(=O)O)ccc1NC(=O)[C@@H]1N[C@@H](CC(C)(C)C)[C@](C#N)(c2ccc(Cl)cc2F)[C@H]1c1cccc(Cl)c1F [Idasanutlin]	6.5 µM	
O=C(/C=C/c1ccc(O)c(O)c1)O[C@@H]1CC(O)(C(=O)O)C[C@@H](OC(=O)/C=C/c2ccc(O)c(O)c2)C1O (some centres unmarked) [Isochlorogenic acid A, 3,5-dicaffeoylquinic acid]		IC50 [1, 8]: 5.5 µM; loss in IC50 values in comparison to CA [1]: ~ 10 fold
C[C@@H]1NC(=O)[C@@H]2CCCN2C(=O)[C@H](CC(N)=O)NC(=O)[C@@H]2CSSC[C@H](N)C(=O)N[C@H]3CSSC[C@H](NC1=O)C(=O)N[C@@H]([C@@H](C)O)C(=O)NCC(=O)N[C@H](C(=O)N[C@@H](Cc1ccc(O)cc1)C(=O)O)CSSC[C@H](NC(=O)[C@H](Cc1ccc(O)cc1)NC(=O)[C@H](CCC(=O)O)NC3=O)C(=O)N2 [Linaclotide] (H-CCEYCCNPACTGCY-OH; disulfide 1-6, 2-10, 5-13)	5.5 µM	
CCCCCCO[C@@H](C)c1cccc(-c2csc(NC(=O)c3cc(Cl)c(/C=C(\C)C(=O)O)c(Cl)c3)n2)c1OC [Lusutrombopag]	6 µM	
COc1ccc2cc(-c3cc(-c4cc(Cl)cc(Cl)c4)nn3[C@@H](C)c3ccc(C(=O)NCCC(=O)O)cc3)ccc2c1 [MK 0893]	14.4 µM	

Molecule	IC50 [1, 7]	other results
O=S(=O)(O)c1ccc(N=C2C=CC(=C(c3ccc(Nc4ccc(S(=O)(=O)O)cc4)cc3)c3ccc(Nc4ccc(S(=O)(=O)O)cc4)cc3)C=C2)cc1 [Methyl Blue]		IC50 [1, 8]: 4.2 µM
CCCCCOc1ccc(-c2cc(-c3ccc(C(=O)N[C@H]4C[C@@H](O)[C@@H](O)NC(=O)[C@@H]5[C@@H](O)[C@@H](C)CN5C(=O)[C@H]([C@H](O)CC(N)=O)NC(=O)[C@H]([C@H](O)[C@@H](O)c5ccc(O)c(OS(=O)(=O)O)c5)NC(=O)[C@@H]5C[C@@H](O)CN5C(=O)[C@H]([C@@H](C)O)NC4=O)cc3)no2)cc1 [Micafungin] (X1-[Orn(4R-OH,5R-OH)]T[Hyp][hTyr(3S-OH,4S-OH,3'-OSO3H)][Gln(3R-OH)][Pro(3S-OH,4S-Me)]; lactam 1-C)	10.4 µM	
CCCCCCCC/C=C\CCCCCCCC(=O)O [Oleic acid]	15.7 µM	
O=C(OC[C@H]1O[C@@H](OC(=O)c2cc(O)c(O)c(O)c2)[C@H](OC(=O)c2cc(O)c(O)c(O)c2)[C@@H](OC(=O)c2cc(O)c(O)c(O)c2)[C@@H]1OC(=O)c1cc(O)c(O)c(O)c1)c1cc(O)c(O)c(O)c1 [Pentagalloylglucose]	11.6 µM	
O=C(Nc1cccc2c(=O)cc(-c3nnn[nH]3)oc12)c1ccc(OCCCCc2ccccc2)cc1 [Pranlukast (hemihydrate), Pranlukast]	7.8 µM	
Cc1cc(/C=C(\C#N)C(=O)Nc2cccc(Br)c2)c(C)n1-c1ccc(C(=O)O)cc1 [RNPA1000]		IC50 [1, 8]: 9.6 µM
O=c1ccc2[n+]([O-])c3ccc(O)cc3oc-2c1 [Resazurin]	10.5 µM	
O=C(O)c1cc(O)c2c(c1)[C@H]([C@H]1c3cc(C(=O)O)cc(O)c3C(=O)c3c(O[C@@H]4O[C@H](CO)[C@@H](O)[C@H](O)[C@H]4O)cccc31)c1cccc(O[C@@H]3O[C@H](CO)[C@@H](O)[C@H](O)[C@H]3O)c1C2=O [Sennoside A]	5.7 µM	
COc1ccc2c(O[C@@H]3C[C@H]4C(=O)N[C@]5(C(=O)NS(=O)(=O)C6CC6)C[C@H]5/C=C\CCCCN(C)C(=O)[C@@H]4C3)cc(-c3nc(C(C)C)cs3)nc2c1C [Simeprevir]	16.5 µM	
CC(C)=CCOc1ccc(/C=C/C(=O)c2ccc(OCC=C(C)C)cc2OCC(=O)O)cc1 [Sofalcone]	18.5 µM	
CC(C)(Sc1cc(C(C)(C)C)c(O)c(C(C)(C)C)c1)Sc1cc(C(C)(C)C)c(OC(=O)CCC(=O)O)c(C(C)(C)C)c1 [Succinobucol]	8.1 µM	
Cc1ccnc(NS(=O)(=O)c2ccc(N)cc2)n1 [Sulfamerazine]	6.5 µM	
Cc1ccc(C(=O)Nc2ccc(S(=O)(=O)O)c3cc(S(=O)(=O)O)cc(S(=O)(=O)O)c23)cc1NC(=O)c1cccc(NC(=O)Nc2cccc(C(=O)Nc3cc(C(=O)Nc4ccc(S(=O)(=O)O)c5cc(S(=O)(=O)O)cc(S(=O)(=O)O)c45)ccc3C)c2)c1 [Suramin]	0.8 µM	concentration reported to inhibit SARS-CoV-2 infection in cell culture (SARS-CoV-2 [3]): 20 µM
CC(C)CCCCCCCCC[C@@H]1CC(=O)N[C@@H](CCC(=O)O)C(=O)N[C@@H](CC(C)C)C(=O)N[C@H](CC(C)C)C(=O)N[C@@H](C(C)C)C(=O)N[C@@H](CC(=O)O)C(=O)N[C@H](CC(C)C)C(=O)N[C@@H](CC(C)C)C(=O)O1 [Surfactin] (EL[dL]VD[dL]L; linker N-C via X2)	11.1 µM	
COc1ccc2c(c1)C=C1Cn3c-2c(C2CCCCC2)c2ccc(cc23)C(=O)NS(=O)(=O)N(C)CCOCCN(C)C1=O [TMC647055]	10 µM	
COc1cc(C(=O)NS(=O)(=O)c2ccccc2C)ccc1Cc1cn(C)c2ccc(NC(=O)OC3CCCC3)cc12 [Zafirlukast]	10.4 µM	
O=C(/C=C/c1ccc(O)c(O)c1)O[C@H](Cc1ccc(O)c(O)c1)C(=O)O [rosmarinic acid]		N protein-RNA1 disruption [4]: low
C[C@@H]1O[C@@H](O[C@@H]2[C@@H](O)[C@H](OCCc3ccc(O)c(O)c3)O[C@H](CO)[C@H]2OC(=O)/C=C/c2ccc(O)c(O)c2)[C@H](O)[C@H](O)[C@H]1O [verbascoside]		N protein-RNA1 disruption [4]: low
L-Chicoric acid		antiviral activity at 25 and 100 µM (SARS-CoV-2 [5]): antiviral activity at 100 µM only; reduction in infectious viral load (SARS-CoV-2 [5]): tenfold; antiviral activity at 25 and 100 µM (SARS-CoV-2 [6]): antiviral activity at 100 µM only; reduction in infectious viral load (SARS-CoV-2 [6]): 100 fold; virucidal activity against SARS-CoV-2 (SARS-CoV-2 particles): slight virucidal activity
Tannic acid		IC50 [1, 8]: 1.4 µM
Verteporfin		IC50 [1, 8]: 10.8 µM
